In patent US11591476B2, “In-vivo probe for real time longitudinal monitoring of inducible nitric-oxide synthase in living cells and animals” (priority 2016, dated 2023):

Test: Fluorescence excitation and emission maxima of the probes
Assay type: physicochemical
From the text: The probe of the present disclosure can selectively bind iNOS enzyme and produce a perceptible change in fluorescence upon binding.

emission wavelength: 630 nm | maximum excitation wavelength: 610 nm
SMILES: CN1c2cc3c(cc2C(CS(=O)(=O)[O-])=CC1(C)C)C(c1c(Cl)c(SCC(=O)NCCCCCC(=O)N2CCN(c4ccnc(-n5ccnc5)n4)C(CC(=O)NCc4ccc5c(c4)OCO5)C2)c(Cl)c(Cl)c1C(=O)O)=c1cc2c(cc1O3)=[N+](C)C(C)(C)C=C2CS(=O)(=O)O (centres unmarked) [PIA-610, Pyrimidine Imidazole Alexa-Fluor-610]
